In US8143394B2, “Pyrido(3,2-d)pyrimidines useful for treating viral infections” (Gilead Sciences, Inc., priority 2006, dated 2012):
Like-named read-outs stand apart in the source and are kept apart here.

Legend:
[1] = molecular target: HCV replicon; assay: Anti-HCV replicon assay (EC50, luciferase readout); format: cell-based; settings: human hepatoma Huh-7 cell line harbouring a HCV replicon, 3 days, luciferase, read-out: EC50
Summary of the method: (§1)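 Huh-7 cells bearing HCV replicon, 6000 per well, exposed 3 days at 37 °C to 3-fold compound dilutions (0.5% DMSO final where used). EC50 from luciferase luminescence after lysis; CC50 (50% growth inhibition) from CellTiter-Glo luminescence in parallel plates.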

[2] = tested on: Huh-7 HCV replicon cells; assay: CC50 assay (CellTiter-Glo) in Huh-7 HCV replicon cells; format: cell-based, human; settings: 3 days, 50% cytostatic concentration
Summary of the method: as §1

[3] = as above; format: cell-based, human; settings: human, 50% cytostatic concentration
Summary of the method: as §1

Molecule	EC50 [1] [µM]	CC50 [2] [µM]	EC50 ([1]; Hepatitis C virus, 72 h) [µM]	CC50 at 3 days [3] [µM]
4-ethoxy-6-(5-methyl-4H-[1,2,4]triazol-3-yl)-pyrido[3,2-d]pyrimidin-2-ylamine [Example 88]	0.3 to 1	10 to 20		
CC(C)(N)C(=O)Nc1ccc(-c2ccc3nc(N)nc(NCCS(C)(=O)=O)c3n2)cc1 [Example 1, 2-Amino-N-{4-[2-amino-4-(2-methanesulfonyl-ethylamino)-pyrido[3,2-d]pyrimidin-6-yl]-phenyl}-2-methyl-propionamide]			< 0.3	< 10
CCOc1nc(N)nc2ccc(-c3ccc(C(=O)Nc4ccc(F)cc4)cc3)nc12 [Example 86, 4-(2-Amino-4-ethoxy-pyrido[3,2-d]pyrimidin-6-yl)-N-(4-fluoro-phenyl)-benzamide]			0.3 to 1	> 20
CC(C)Oc1nc(N)nc2ccc(-c3ccc(C(=O)NC(C)(C)C)cc3)nc12 [Example 67, 4-(2-Amino-4-isopropoxy-pyrido[3,2-d]pyrimidin-6-yl)-N-tert-butyl-benzamide]			0.3 to 1	> 20
Nc1nc(N2CCS(=O)(=O)CC2)c2nc(-c3ccc(C(=O)NC4CC4)cc3)ccc2n1 [Example 16, 4-[2-Amino-4-(1,1-dioxo-1λ^6-thiomorpholin-4-yl)-pyrido[3,2-d]pyrimidin-6-yl]-N-cyclopropyl-benzamide]			< 0.3	10 to 20
CC(C)NC(=O)c1ccc(-c2ccc3nc(N)nc(OC(C)C)c3n2)cc1 [Example 69, 4-(2-Amino-4-isopropoxy-pyrido[3,2-d]pyrimidin-6-yl)-N-isopropyl-benzamide]			< 0.3	> 20
Nc1nc(O[C@H]2CCOC2)c2nc(-c3ccc(C(=O)NCCCN4CCCC4)cc3)ccc2n1 [Example 79, 4-[2-Amino-4-(tetrahydro-furan-3-yloxy)-pyrido[3,2-d]pyrimidin-6-yl]-N-(3-pyrrolidin-1-yl-propyl)-benzamide]			0.3 to 1	> 20
CCOc1nc(N)nc2ccc(-c3ccc(NC(=O)CC)cc3)nc12 [Example 46, N-[4-(2-Amino-4-ethoxy-pyrido[3,2-d]pyrimidin-6-yl)-phenyl]-propionamide]			< 0.3	> 20
